Test results reported in patent US9216973B2, “Insecticidal compounds” (Syngenta Participations AG, priority 2008, dated 2015).

Columns and labels:
Type in all cases: in vivo
[1] = tested on: Heliothis virescens (Tobacco budworm); experiment: Heliothis virescens egg test on artificial diet; conditions: for pest or weed control at 200 ppm: 96 h, 200 ppm (concentration in well 18 ppm), eggs 0-24 h old on artificial diet, egg mortality, larval mortality, growth regulation after 4 days, read-out: control of Heliothis virescens; for effect on mortality, feeding behavior, or growth regulation: same protocol, 200 ppm
Method: (§1) This Example illustrates the insecticidal and acaricidal properties of compounds of formula (I). The tests were performed as follows:
(§2) Cotton leaf discs were placed on agar in a 24-well microtiter plate and sprayed with test solutions at an application rate of 200 ppm. After drying, the leaf discs were infested with 5 L1 larvae. The samples were checked for mortality, feeding behavior, and growth regulation 3 days after treatment (DAT). The following compound gave at least 80% control of Spodoptera littoralis: A1, A2, A5, A6, A7, A8, A10, A11, A12, A13, A14, A15, A16, A17, A18, A19, A21, A22, A23, A24, A25, A30, A31, A32, A33, A34, A35, A39, A40, A41 A42, A43, A44, A45, A46, A47, A48, A49, A50, A51, A53, A54, A55, A59, A60, A61, A62. Heliothis virescens (Tobacco budworm): Eggs (0-24 h old) were placed in 24-well microtiter plate on artificial diet and treated with test solutions at an application rate of 200 ppm (concentration in well 18 ppm) by pipetting. After an incubation period of 4 days, samples were checked for egg mortality, larval mortality, and growth regulation. The following compound gave at least 80% control of Heliothis virescens: A1, A2, A3, A4, A5, A6, A7, A8, A10, A11, A12, A13, A14, A15, A16, A18, A19, A21, A22, A24, A25, A30, A31, A32, A33, A34, A35, A37, A38, A39, A40, A42, A43, A44, A45, A46, A47, A48, A49, A50, A51, A55, AA57, A58, A59, A60, A61, A62. Plutella xylostella (Diamond back moth): 24-well microtiter plate (MTP) with artificial diet was treated with test solutions at an application rate of 200 ppm (concentration in well 18 ppm) by pipetting. After drying, the MTP's were infested with L2 larvae (7-12 per well). After an incubation period of 6 days, samples were checked for larval mortality and growth regulation. The following compound gave at least 80% control of Plutella xylostella: A1, A2, A5, A6, A7, A8, A9, A10, A11, A12, A13, A14, A15, A16, A17, A18, A19, A20, A21, A22, A24, A25, A30, A31, A32, A33, A34, A35, A37, A38, A39, A40, A42, A43, A44, A45, A46, A47, A48, A49, A50, A51, A52, A53, A54, A55, A57, A58, A59, A60, A61, A62, B3. Diabrotica balteata (Corn root worm): A 24-well microtiter plate (MTP) with artificial diet was treated with test solutions at an application rate of 200 ppm (concentration in well 18 ppm) by pipetting. After drying, the MTP's were infested with L2 larvae (6-10 per well). After an incubation period of 5 days, samples were checked for larval mortality and growth regulation. The following compound gave at least 80% control of Diabrotica balteata: A1, A2, A5, A6, A7, A10, A11, A12, A13, A14, A15, A16, A17, A18, A19, A21, A22, A24, A25, A30, A31, A32, A33, A34, A35, A38, A39, A40, A42, A43, A44, A45, A46, A47, A48, A49, A50, A59, A60, A61, A62. Thrips tabaci (Onion thrips): Sunflower leaf discs were placed on agar in a 24-well microtiter plate and sprayed with test solutions at an application rate of 200 ppm. After drying, the leaf discs were infested with an […] population of mixed ages. After an incubation period of 7 days, samples were checked for mortality. The following compounds gave at least 80% control of Thrips tabaci: A1, A2, A5, A6, A7, A8, A10, A12, A13, A14, A15, A16, A17, A18, A19, A21, A24, A25, A30, A31, A32, A33, A34, A35, A39, A42, A43, A44, A45, A46, A47, A48, A49, A50, A51, A53, A54, A57, A58, A59, A60, A61, A62. Tetranychus urticae (Two-spotted spider mite): Bean leaf discs on agar in 24-well microtiter plates were sprayed with test solutions at an application rate of 200 ppm. After drying, the leaf discs are infested with mite populations of mixed ages. 8 days later, discs are checked for egg mortality, larval mortality, and adult mortality. The following compound gave at least 80% control of Tetranychus urticae: A1, A2, A4, A5, A6, A7, A8, A10, A11, A12, A13, A14, A15, A16, A17, A18, A19, A20, A21, A22, A30, A31, A32, A33, A34, A35, A39, A40, A41, A42, A43, A44, A45, A46, A47, A48, A49, A50, A51, A53, A54, A55, A57, A59, A60, A61, A62.

[2] = tested on: Diabrotica balteata (Corn root worm); experiment: Diabrotica balteata larvae test on artificial diet; conditions: for pest or weed control at 200 ppm: 120 h, 200 ppm (concentration in well 18 ppm), artificial diet, L2 larvae, larval mortality and growth regulation after 5 days; for effect on mortality, feeding behavior, or growth regulation: same protocol, 200 ppm
Method: as §1, §2

[3] = tested on: Thrips tabaci (Onion thrips); experiment: Thrips tabaci sunflower leaf disc spray test; conditions: for pest or weed control at 200 ppm: foliar, 168 h, 200 ppm spray on sunflower leaf discs, population of mixed ages, mortality after 7 days; for effect on mortality, feeding behavior, or growth regulation: same protocol, 200 ppm
Method: as §1, §2

Compound | pest or weed control at 200 ppm [1] [%] | pest or weed control at 200 ppm [2] [%] | pest or weed control at 200 ppm [3] [%] | effect on mortality, feeding behavior, or growth regulation [1] | effect on mortality, feeding behavior, or growth regulation [2] | effect on mortality, feeding behavior, or growth regulation [3]
CC1(NC(=O)c2ccc(C3=NOC(c4cc(Cl)cc(Cl)c4)(C(F)(F)F)C3)c3ccccc23)CSC1 (stereo not shown) [A1] | ≥ 80 | ≥ 80 | ≥ 80 | – | – | –
O=C(NC1CSC1)c1ccc(C2=NOC(c3cc(Cl)cc(Cl)c3)(C(F)(F)F)C2)c2ccccc12 (stereo not shown) [A2] | ≥ 80 | ≥ 80 | ≥ 80 | – | – | –
Cc1cc(C2=NOC(c3cc(Cl)cc(Cl)c3)(C(F)(F)F)C2Br)ccc1C(=O)NC1(C)CSC1 (stereo not shown) [A5] | ≥ 80 | ≥ 80 | ≥ 80 | – | – | –
Cc1cc(C2=NOC(c3cc(Cl)cc(Cl)c3)(C(F)(F)F)C2Br)ccc1C(=O)NC1CSC1 (stereo not shown) [A6] | ≥ 80 | ≥ 80 | ≥ 80 | – | – | –
Cc1cc(C2=NOC(c3cc(Cl)cc(Cl)c3)(C(F)(F)F)C2Br)ccc1C(=O)NC1C[S+]([O-])C1 (stereo not shown) [A7] | ≥ 80 | – | ≥ 80 | – | – | –
Cc1cc(N2CC(c3cc(Cl)cc(Cl)c3)(C(F)(F)F)OC2=O)ccc1C(=O)NC1C[S+]([O-])C1 (stereo not shown) [A10] | ≥ 80 | ≥ 80 | ≥ 80 | – | – | –
Cc1cc(N2CC(c3cc(Cl)cc(Cl)c3)(C(F)(F)F)OC2=O)ccc1C(=O)NC1CSC1 (stereo not shown) [A11] | ≥ 80 | ≥ 80 | – | – | – | –
Cc1cc(C2=NN(C)C(c3cc(Cl)cc(Cl)c3)(C(F)(F)F)C2)ccc1C(=O)NC1(C)CSC1 (stereo not shown) [A12] | ≥ 80 | ≥ 80 | ≥ 80 | – | – | –
Cc1cc(C2=NN(C)C(c3cc(Cl)cc(Cl)c3)(C(F)(F)F)C2)ccc1C(=O)NC1C[S+]([O-])C1 (stereo not shown) [A13] | ≥ 80 | ≥ 80 | ≥ 80 | – | – | –
Cc1cc(C2=NN(C)C(c3cc(Cl)cc(Cl)c3)(C(F)(F)F)C2)ccc1C(=O)NC1CSC1 (stereo not shown) [A14] | ≥ 80 | ≥ 80 | ≥ 80 | – | – | –
O=C(NC1CS(=O)(=O)C1)c1ccc(C2=NOC(c3cc(Cl)cc(Cl)c3)(C(F)(F)F)C2)c2ccccc12 (stereo not shown) [A15] | ≥ 80 | ≥ 80 | ≥ 80 | – | – | –
O=C(NC1C[S+]([O-])C1)c1ccc(C2=NOC(c3cc(Cl)cc(Cl)c3)(C(F)(F)F)C2)c2ccccc12 (stereo not shown) [A16] | ≥ 80 | ≥ 80 | ≥ 80 | – | – | –
Cc1cc(C2=NOC(c3cc(Cl)cc(Cl)c3)(C(F)(F)F)O2)ccc1C(=O)NC1CSC1 (stereo not shown) [A17] | – | ≥ 80 | ≥ 80 | – | – | –
Cc1cc(C2CC(c3cc(Cl)cc(Cl)c3)(C(F)(F)F)ON2C)ccc1C(=O)NC1C[S+]([O-])C1 (stereo not shown) [A18] | ≥ 80 | ≥ 80 | ≥ 80 | – | – | –
Cc1cc(C2CC(c3cc(Cl)cc(Cl)c3)(C(F)(F)F)ON2C)ccc1C(=O)NC1CS(=O)(=O)C1 (stereo not shown) [A19] | ≥ 80 | ≥ 80 | ≥ 80 | – | – | –
Cc1cc(C2CC(c3cc(Cl)cc(Cl)c3)(C(F)(F)F)ON2C)ccc1C(=O)NC1CSC1 (stereo not shown) [A21] | ≥ 80 | ≥ 80 | ≥ 80 | – | – | –
O=C(NC1CS(=O)(=O)C1)c1ccc(C2=NOC(c3cc(Cl)cc(Cl)c3)(C(F)(F)F)C2)c2nsnc12 (stereo not shown) [A22] | ≥ 80 | ≥ 80 | – | – | – | –
Cc1nc2c(C3=NOC(c4cc(Cl)cc(Cl)c4)(C(F)(F)F)C3)ccc(C(=O)NC3CS(=O)(=O)C3)c2o1 (stereo not shown) [A26] | – | – | – | little or no effect | little or no effect | little or no effect
Cc1nc2c(C3=NOC(c4cc(Cl)cc(Cl)c4)(C(F)(F)F)C3)ccc(C(=O)NC3(C)CSC3)c2o1 (stereo not shown) [A27] | – | – | – | little or no effect | little or no effect | little or no effect
Cc1nc2c(C3=NOC(c4cc(Cl)cc(Cl)c4)(C(F)(F)F)C3)ccc(C(=O)NC3C[S+]([O-])C3)c2o1 (stereo not shown) [A28] | – | – | – | little or no effect | little or no effect | little or no effect
Cc1nc2c(C3=NOC(c4cc(Cl)cc(Cl)c4)(C(F)(F)F)C3)ccc(C(=O)NC3CSC3)c2o1 (stereo not shown) [A29] | – | – | – | little or no effect | little or no effect | little or no effect
Cc1cc(C2=NOC(c3cc(Cl)cc(Cl)c3)(C(F)(F)F)C2Cl)ccc1C(=O)NC1CS(=O)(=O)C1 (stereo not shown) [A32] | ≥ 80 | ≥ 80 | ≥ 80 | – | – | –
Cc1cc(C2=NOC(c3cc(Cl)cc(Cl)c3)(C(F)(F)F)C2Cl)ccc1C(=O)NC1(C)CSC1 (stereo not shown) [A33] | ≥ 80 | ≥ 80 | ≥ 80 | – | – | –
Cc1cc(C2=NOC(c3cc(Cl)cc(Cl)c3)(C(F)(F)F)C2Cl)ccc1C(=O)NC1C[S+]([O-])C1 (stereo not shown) [A34] | ≥ 80 | ≥ 80 | ≥ 80 | – | – | –
CC1(NC(=O)c2cccc3c(C4=NOC(c5cc(Cl)cc(Cl)c5)(C(F)(F)F)C4)cccc23)CSC1 (stereo not shown) [A36] | – | – | – | little or no effect | little or no effect | little or no effect
Cc1cc(C2=NOC(c3cc(Cl)cc(Cl)c3)(C(F)(F)F)C2O)ccc1C(=O)NC1CS(=O)(=O)C1 (stereo not shown) [A51] | ≥ 80 | – | ≥ 80 | – | – | –
Cc1cc(C2=NOC(c3cc(Cl)cc(Cl)c3)(C(F)(F)F)C2O)ccc1C(=O)NC1C[S+]([O-])C1 (stereo not shown) [A53] | – | – | ≥ 80 | – | – | –
Cc1cc(C2=NOC(c3cc(Cl)cc(Cl)c3)(C(F)(F)F)C2O)ccc1C(=O)NC1CSC1 (stereo not shown) [A54] | – | – | ≥ 80 | – | – | –
Cc1cc(C2=NOC(c3cc(Cl)cc(Cl)c3)(C(F)(F)F)/C2=N/O)ccc1C(=O)NC1CS(=O)(=O)C1 (stereo not shown) [A55] | ≥ 80 | – | – | – | – | –
